Data: patent US10561638B2, “Methods for treating dependence” (Biotie Therapies, Inc., priority 2007, dated 2020)
Entries after “also recorded” stand apart in the source; their conditions may differ.

Tests used:
[1] = Tolerability in patients with chronic heart failure; type: in vivo, human
Experimental: The dose at which the frequency of significant adverse events increased was 160 mg.

[2] = system: tissue norepinephrine and dopamine levels; test: Tissue catecholamines in Sprague-Dawley rats after 10 days b.i.d. dosing; type: in vivo; conditions: for dopamine/norepinephrine ratio vs vehicle: 2.0 and 6.2 mg/kg b.i.d., day 10, hydrochloride; for norepinephrine levels vs vehicle: 2.0 and 6.2 mg/kg
Experimental: Male Sprague-Dawley rats, weighing 180-200 grams, were fed an iodine deficient diet (Purina, 5891C, Lot 1478, 0.066±0.042 mg iodine/kg sample) ad libitum 14 days prior to treatment. Animals were weighed and randomly assigned to one of the following treatment groups (n=12 per group): nepicastat at 2.0 mg/kg, nepicastat at 6.2 mg/kg, Methimazole at 1 mg/kg, or vehicle at 1 ml/kg. Each group of rats was dosed orally in the evening and the following morning, approximately 12 hours apart, for 10 consecutive days.
At four hours after the second dose, on day 10, rats were anesthetized with halothane, decapitated, and the cortex, striatum, and mesenteric artery were harvested and weighed. Tissue samples were not harvested from the methimazole groups as they only served as positive controls for determination of thyroid function. The mesenteric artery, cortex, and striatum were immediately placed in 0.4 M iced perchloric acid and analyzed for norepinephrine and dopamine levels the same day using HPLC.
To statistically evaluate changes in T3 and T4 levels, a change from baseline was calculated from the day −3 time point. A non-parametric two-way within subject analysis of variance (ANOVA) was conducted. Also a one-way ANOVA was performed to detect if a significant difference from control occurred. Pairwise analyses between controls and each treatment group were carried out using Fisher's LSD strategy to control the experiment-wise error rate. For statistical analysis of catecholamine levels, a one-way ANOVA with factor DOSE was performed. Pairwise analyses between treated and controls at each dose were carried out using Fisher's LSD strategy to control the experiment-wise error rate.

[3] = system: MPTP-lesioned squirrel monkey; test: MPTP-lesioned squirrel monkey Parkinsonian model; type: in vivo, squirrel monkeys
Experimental: Twenty four squirrel monkeys, fourteen females and ten males were used in a Parkinsonian model. The twenty-four animals were randomly assigned to one of four treatment groups, with 6 animals per group. The groups consisted of the following: Group A (6 animals) received placebo (water) treatment; Group B (5 animals) received drug nepicastat at 1 mg/kg/day (0.5 mg/kg twice daily); Group C (6 animals) received 4 mg/kg/day (2 mg/kg twice daily); and Group D (6 animals) received 10 mg/kg/day (5 mg/kg twice daily). In Group B, one animal died acutely following MPTP-lesioning, and was not replaced.
Prior to lesioning, animals were subjected to quantitative assessment of spontaneous motor activity using an infrared activity monitor (IRAM) cage. All recording sessions were 60 minutes in length and were carried out for 10 sessions over a period of 2 weeks. The behavior of animals was also assessed by 1 to 3 clinical raters using a parkinsonian clinical rating scale (CRS) once per day (12 noon to 1 pm) for 3 to 5 consecutive days. […] Both the activity monitoring (IRAM) and clinical rating assessments established the mean base-line activity of each animal.
Animals were lesioned by the administration of MPTP at a concentration of 2.0 mg/kg (free-base) via subcutaneous injection to achieve a parkinsonian state. A post-MPTP lesioning behavioral assessment was carried out 2 to 4 weeks after the last MPTP-lesioning. Locomotor activity was monitored by IRAM in 60-minute sessions for 3 to 5 days. Clinical behavior (CAS) was assessed by one to three individuals rating over a period of 3 to 5 days.
Animals were tested for response to L-Dopa and the efficacy of drug nepicastat. Testing was carried out 4 to 12 weeks after the last MPTP dose. L-Dopa was administered at a concentration of either 2.5, 5, or 7.5 mg/kg by oral gavage twice daily (at 10 am and 2 pm) for 7 consecutive days. Behavior was determined by IRAM and CRS. Clinical rating was carried out 60 to 90 minutes following the 10 am morning dose on the last 4 days of treatment. Raters (one to three individuals) were blinded to the different treatment groups. IRAM assessment were preformed for 90 minutes immediately following drug administration at 2 pm on the last 2 to 5 days of drug treatment. There was a minimum 2 day washout period between each treatment dose.
Nepicastat or water (as placebo) was administered for 12 days following a minimum 2 day washout after L-Dopa dosing. Drug was administered twice daily at 10 am and 2 pm by oral gavage. Behavior was rated by IRAM and CRS. The CRS was conducted in the morning, 60 to 90 minutes after the 10 am dose of nepicastat on the last 5 days of drug treatment. Raters (one to three individuals) were blinded to the different treatment groups. IRAM assessments were preformed for 90 minutes immediately following drug administration at 2 pm on the last 5 days of drug treatment.
Eight parkinsonian features were rated in each animal and the total score was derived from the sum of these eight features. For each animal, a single clinical rating score was obtained for each drug dose by averaging the clinical rating scores of all raters (one to three) conducted over the consecutive multiple dosing (with the same dose) days. This average CRS was used for statistical analysis. A lower score was considered a less parkinsonian behavioral state.
Statistical analysis consisted of: (1) comparisons between the average CRS of placebo to nepicastat at 1, 4, and 10 mg/kg/day using the Kruskal-Wallis (non-parametric analysis of variance). This comparison was repeated using the average CRS for each experimental drug concentration corrected by the final post-MPTP ratings for each animal. The corrected clinical scores are clinical scores of experimental drug at each concentration as a ratio of post-MPTP clinical scores. […]

Q: With `Cl.NCc1c[nH]c(=S)n1[C@H]1CCc2c(F)cc(F)cc2C1` [nepicastat, (S)-5-Aminomethyl-1-(5,7-difluoro-1,2,3,4-tetrahydronaphth-2-yl)-2,3-dihydro-2-thioxo-1H-imidazole hydrochloride] as the compound, how does the “patients with symptomatic orthostatic hypotension” value ([1]; 160 mg) read?
A: 6 of the 8 patients

Q: And the “patients who developed a rash” value ([1]; 160 mg for 8 days or longer)?
A: Four of 8 patients

Q: What about the tolerability ([1]; daily doses of 40, 80, 120 mg for 10 days) of the same compound?
A: generally well tolerated

Q: And the “dose at which the frequency of significant adverse events increased” value ([1]; human, in vivo)?
A: 160 mg

Q: What about the “dopamine levels vs vehicle” value ([2]; all three tissues, 2.0 or 6.2 mg/kg) of the same compound?
A: not significantly (p>0.05) different

Q: And the “dopamine/norepinephrine ratio vs vehicle” value ([2]; cortex (and striatum))?
A: not in the cortex; also recorded: not significantly (p>0.05) different

Q: What about the “norepinephrine levels vs vehicle” value ([2]; cortex) of the same compound?
A: not significantly (p>0.05) different

Q: And the “norepinephrine levels vs vehicle” value ([2]; mesenteric artery)?
A: significantly (p<0.05) lower

Q: And the “dopamine/norepinephrine ratio vs vehicle” value ([2]; mesenteric artery)?
A: significantly raised; also recorded: significantly (p<0.05) higher

Q: What about the “norepinephrine levels vs vehicle” value ([2]; striatum) of the same compound?
A: marginally (p<0.10) lower

Q: And the “activity monitoring (IRAM) vs placebo” value ([3]; 1 mg/kg/day)?
A: slower than placebo treatment

Q: What about the “parkinsonian clinical rating vs placebo” value ([3]; 1, 4, 10 mg/kg/day, 12 days, hydrochloride) of the same compound?
A: no detectable differences; also recorded: no significant effect in parkinsonian symptoms compared to placebo

Q: What about the “activity monitoring (IRAM) vs placebo” value ([3]; 4 and 10 mg/kg/day) of the same compound?
A: no difference

Q: And the “parkinsonian clinical rating vs post-MPTP (pre-treatment) state” value ([3]; nepicastat 4 and 10 mg/kg/day, hydrochloride)?
A: significant improvement over the post-MPTP (pre-treatment) state; also recorded: significant effect in parkinsonian symptoms compared to post-MPTP lesioning
